Assay results reported in patent US11053243B2 (Merck Sharp & Dohme Corp., priority 2009, dated 2021).

Each compound was assayed on HCV genotype 1b replicon (assay: HCV replicon assay, genotype 1b). Details: Hepatitis C virus; genotype 1b replicon cells, 24 to 72 hours incubation, luciferase activity.
Format: cell-based, hepatitis C virus
Experimental: The HCV replicons and NS5A inhibitory activity of the present compounds may be tested using assays known in the art. HCV inhibitors, such as those described in the Examples herein have activities in genotype 1b, 2a and 1a replicon assays of from about 1 pM to about 1 μM. The assay is performed by incubating a replicon harboring cell-line in the presence of inhibitor for a set period of time and measuring the effect of the inhibitor on HCV replicon replication either directly by quantifying replicon RNA level, or indirectly by measuring enzymatic activity of a co-encoded reporter enzyme such as luciferase or β-lactamase. By performing a series of such measurements at different inhibitor concentrations, the effective inhibitory concentration of the inhibitor (EC50 or EC90) is determined. See Jan M. Vrolijk et al., A replicons-based bioassay for the measurement of interferons in patients with chronic hepatitis C, 110 J. VIROLOGICAL METHODS 201 (2003). Such assays may also be run in an automated format for high through-put screening. See Paul Zuck et al., A cell-based β-lactamase reporter gene assay for the identification of inhibitors of hepatitis C virus replication, 334 ANALYTICAL BIOCHEMISTRY 344 (2004).
Measurement of inhibition by compounds was performed using the HCV replicon system. Several different replicons encoding different HCV genotypes or mutations were used. In addition, potency measurements were made using different formats of the replicon assay, including different ways of measurements and different plating formats. See Jan M. Vrolijk et al., A replicons-based bioassay for the measurement of interferons in patients with chronic hepatitis C, 110 J. VIROLOGICAL METHODS 201 (2003); Steven S. Carroll et al., Inhibition of Hepatitis C Virus RNA Replication by 2′-Modified Nucleoside Analogs, 278(14) J. BIOLOGICAL CHEMISTRY 11979 (2003). However, the underlying principles are common to all of these determinations, and are outlined below.
Stable neomycin phosphotransferase encoding replicon-harboring cell lines were used, so all cell lines were maintained under G418 selection prior to the assay. In some cases, the cell lines encoded a luciferase:Neor fusion and could be assayed either directly by determination of RNA copy number, or indirectly through measurement of the luciferase activity.
To initiate an assay, replicon cells were plated in the presence of a dilution series of test compound in the absence of G418. Typically, the assays were performed in a 96-well plate format for manual operation, or a 384-well plate in an automated assay. Replicon cells and compound were incubated for 24 to 72 hours. At the end of the assay, cells are washed free of media and compound and then lysed. Luciferase activity was measured using a conventional luciferase assay. EC50 determinations were calculated as a percent of a DMSO control by fitting the data to a four parameter fit function.
The activity table below provides representative data illustrating observed activity against genotype 1b.

In order of falling EC50:
1. O=C(Nc1cnc(-c2cc3cc(NC(=O)[C@@H]4CCCN4C(=O)Cc4ccccc4)ccc3[nH]2)nc1)[C@@H]1CCCN1C(=O)Cc1ccccc1 [Example 42]  14 nM
2. O=C(Nc1ccc(-c2cc3nc(NC(=O)[C@@H]4CCCN4C(=O)Cc4ccccc4)ccc3[nH]2)cc1)[C@@H]1CCCN1C(=O)Cc1ccccc1 [Example 2, (2S)-1-(phenylacetyl)-N-{2-[4-({[(2S)-1-(phenylacetyl)pyrrolidin-2-yl]carbonyl}amino)phenyl]-1H-pyrrolo[3,2-b]pyridin-5-yl}pyrrolidine-2-carboxamide]  9 nM
3. CC(=O)Nc1ccc(-c2cc3cc(NC(=O)[C@@H]4CCCN4C(=O)[C@@H](c4ccccc4)N4CCCC4)ccc3[nH]2)cc1 [Example 58, N-{2-[4-(acetylamino)phenyl]-1H-indol-5-yl}-1[(2R)-2-phenyl-2-(pyrrolidin-1-yl)acetyl]-L-prolinamide]  0.97 nM
4. N#Cc1c(-c2ccc(NC(=O)[C@@H]3CCCN3C(=O)Cc3ccccc3)cc2)[nH]c2ccc(NC(=O)[C@@H]3CCCN3C(=O)Cc3ccccc3)cc12 [Example 155, (2S)—N-{4-[3-cyano-5-({[(2S)-1-(phenylacetyl)pyrrolidin-2-yl]carbonyl}amino)-1H-indol-2-yl]phenyl}-1-(phenylacetyl)pyrrolidine-2-carboxamide]  0.9 nM
5. CN(C)[C@@H](C(=O)N1CCC[C@H]1C(=O)Nc1ccc2[nH]c(-c3ccc(-c4cnc([C@@H]5CCCN5C(=O)[C@@H](c5ccccc5)N(C)C)[nH]4)cc3)cc2c1)c1ccccc1 [Example 101, 1-[(2R)-2-(dimethylamino)-2-phenylacetyl]-N-{2-[4-(2-{(2S)-1-[(2R)-2-(dimethylamino)-2-phenylacetyl]pyrrolidin-2-yl}-1H-imidazol-5-yl)phenyl]-1H-indol-5-yl}-L-prolinamide]  0.5 nM
6. O=C(Nc1ccc(-c2cc3cc(NC(=O)[C@@H]4CCCN4C(=O)[C@@H](c4ccccc4)N4CCCCC4)ccc3[nH]2)cc1)[C@@H]1CCCN1C(=O)[C@@H](c1ccccc1)N1CCCCC1 [Example 60, (2S)-1-[(2R)-2phenyl-2-(piperidin-1-yl)acetyl]-N-(4-{5-[({(2S)-1-[(2R)-2-phenyl-2-(piperidin-1-yl)acetyl]pyrrolidin-2-yl}carbonyl)amino]-1H-indol-2-yl}phenyl)pyrrolidine-2-carboxamide]  0.13 nM
7. CCN(CC)[C@@H](C(=O)N1CCC[C@H]1c1ncc(-c2ccc(-c3cc4cc(-c5cnc([C@@H]6CCCN6C(=O)[C@@H](c6ccccc6)N(CC)CC)[nH]5)ccc4o3)cc2)[nH]1)c1ccccc1 [Example 193, (2R)-2-(diethylamino)-1-[(2S)-2-(5-{4-[5-(2-{(2S)-1-[(2R)-2-(diethylamino)-2-phenylacetyl]pyrrolidin-2-yl}-1H-imidazol-5-yl)-1-benzofuran-2-yl]phenyl}-1H-imidazol-2-yl)pyrrolidin-1-yl]-2-phenylethanone]  0.05 nM
8. CC(C)(C)OC(=O)N[C@H](C(=O)N1CCC[C@H]1C(=O)Nc1ccc(-c2[nH]c3ccc(NC(=O)[C@@H]4CCCN4C(=O)[C@@H](NC(=O)OC(C)(C)C)c4ccccc4)cc3c2F)cc1)c1ccccc1 [Example 130, tert-butyl {(1S)-2-[(2S)-2-({4-[5-({[(2S)-1-{(2S)-2-[(tert-butoxycarbonyl)amino]-2-phenylacetyl}pyrrolidin-2-yl]carbonyl}amino)-3-fluoro-1H-indol-2-yl]phenyl}carbamoyl)pyrrolidin-1-yl]-2-oxo-1-phenylethyl}carbamate]  0.05 nM
9. CN(C)[C@@H](C(=O)N1CCC[C@H]1c1ncc(-c2ccc(-c3cc4cc(NC(=O)[C@@H]5CCCN5C(=O)[C@H](NC(=O)OC(C)(C)C)c5ccccc5)ccc4[nH]3)cc2)[nH]1)c1ccccc1 [Example 107, tert-butyl {(1R)-2-[(2S)-2-({2-[4-(2-{(2S)-1-[(2R)-2-(dimethylamino)-2-phenylacetyl]pyrrolidin-2-yl}-1H-imidazol-5-yl)phenyl]-1H-indol-5-yl}carbamoyl)pyrrolidin-1-yl]-2-oxo-1-phenylethyl}carbamate]  0.04 nM
10. CC(C)(C)OC(=O)N[C@@H](C(=O)N1CCC[C@H]1C(=O)Nc1ccc2[nH]c(-c3ccc(-c4cnc([C@@H]5CCCN5C(=O)[C@H](NC(=O)OC(C)(C)C)c5ccccc5)[nH]4)cc3)cc2c1)c1ccccc1 [Example 99, tert-butyl {(1R)-2-[(2S)-2-(5-{4-[5-({[(2S)-1-{(2R)-2-[(tert-butoxycarbonyl)amino]-2-phenylacetyl}pyrrolidin-2-yl]carbonyl}amino)-1H-indol-2-yl]phenyl}-1H-imidazol-2-yl)pyrrolidin-1-yl]-2-oxo-1-phenylethyl}carbamate]  0.038 nM
11. CC(C)OC(=O)N[C@@H](C(=O)N1CCC[C@H]1C(=O)Nc1ccc(-c2[nH]c3ccc(NC(=O)[C@@H]4CCCN4C(=O)OC(C)(C)C)cc3c2F)cc1)c1ccccc1 [Example 144, tert-butyl (2S)-2-[(3-fluoro-2-{4-[({(2S)-1-[(2R)-2-phenyl-2-{[(propan-2-yloxy)carbonyl]amino}acetyl]pyrrolidin-2-yl}carbonyl)amino]phenyl}-1H-indol-5-yl)carbamoyl] pyrrolidine-1-carboxylate]  0.036 nM
12. CCN(CC)[C@@H](C(=O)N1CCC[C@H]1C(=O)Nc1ccc2[nH]c(-c3ccc(-c4nnc([C@@H]5CCCN5C(=O)[C@@H](c5ccccc5)N(CC)CC)o4)cc3)cc2c1)c1ccccc1 [Example 191, 1-[(2R)-2-(diethylamino)-2-phenylacetyl]-N-{2-[4-(5-{(2S)-1-[(2R)-2-(diethylamino)-2-phenylacetyl]pyrrolidin-2-yl}-1,3,4-oxadiazol-2-yl)phenyl]-1H-indol-5-yl}-L-prolinamide]  0.02 nM
13. CC(C)(C)CC(=O)N[C@H](C(=O)N1CCC[C@H]1C(=O)Nc1ccc2c(c1)CCc1c-2[nH]c2ccccc12)c1ccccc1 [Example 96, N-(6,11-dihydro-5H-benzo[a]carbazol-3-yl)-1-{(2S)-2-[(3,3-dimethylbutanoyl)amino]-2-phenylacetyl}-L-prolinamide]  0.015 nM
14. COC(=O)N[C@H](C(=O)N1CCC[C@H]1c1ncc(-c2ccc3c(c2)OCn2c-3c(F)c3cc(-c4cnc([C@@H]5CCCN5C(=O)[C@@H](NC(=O)OC)C(C)C)[nH]4)ccc32)[nH]1)C(C)C [Example 189b]  0.001 nM
